Measurements from patent US20260159474A1, “Aminoindane Compounds and Compositions and Methods of Their Therapeutic Use” (Solvonis Therapeutics Ireland Holdings Limited, priority 2021, published 2026).
Read-outs that look alike come from different tables or passages of the source.

Tests used:
CYP2C8 = target: T1, CYP2C8 (Homo sapiens, UniProt P10632); assay: CYP450 inhibition, fluorescent probe substrate; type: in vitro ADME
T1 construct: purchased Life Technologies PV6138; host or cells: Baculosomes
T1 sequence (P10632 1-490): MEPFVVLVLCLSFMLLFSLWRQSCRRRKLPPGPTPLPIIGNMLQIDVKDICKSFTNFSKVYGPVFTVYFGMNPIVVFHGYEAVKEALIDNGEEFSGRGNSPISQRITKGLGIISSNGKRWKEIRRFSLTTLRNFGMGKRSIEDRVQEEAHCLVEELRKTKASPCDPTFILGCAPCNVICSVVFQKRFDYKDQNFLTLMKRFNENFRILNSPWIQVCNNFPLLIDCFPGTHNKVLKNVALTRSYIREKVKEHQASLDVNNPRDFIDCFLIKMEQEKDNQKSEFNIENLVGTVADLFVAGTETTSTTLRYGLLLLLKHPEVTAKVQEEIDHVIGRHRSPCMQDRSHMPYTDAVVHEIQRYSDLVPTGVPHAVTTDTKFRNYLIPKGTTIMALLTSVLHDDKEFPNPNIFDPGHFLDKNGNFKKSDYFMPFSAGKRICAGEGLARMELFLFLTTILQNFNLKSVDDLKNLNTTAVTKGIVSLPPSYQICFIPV
Protocol: (§1) Methods: Recombinant human CYP450 isoenzymes were used to metabolize pro-fluorescent probe substrates to fluorescent products. IC50 values determined from the effect of test compounds on the metabolism of these probe substrates were then used to determine inhibitory potency against CYP450 isoforms. The chemical reagents included:
(§2) The test system was based on a three-step procedure with a “mix and read” format, where reaction and reading were performed at 37° C. The assays described herein measure in vitro inhibitory effects (pIC50) of compounds on the human P450 isoforms (1A2, 2B6, 2C8, 2C9, 2C19, 2D6, 3A4) expressed in recombinant microsomes. Pro-fluorescent probe substrates were metabolized to fluorescent products by the enzymes. Fluorescence was measured in kinetic mode (1 read/minutes for 10 minutes), and the fluorescence rate was calculated.
(§3) Inhibition of the fluorescent signal resulting from P450 activation indicated inhibitory activity and facilitated calculation of the compound pIC50. A quality check was included in each compound plate, wherein the signal window was monitored by performing Z′ calculations ([…] ) and the antagonist potency of internal standards was within the pIC50±2SD range. Concentration response curves (CRCs) of compounds were run on two different test occasions (n 2) by preparing serial dilutions from the same compound stock solution.
(§4) To prepare the compound plate, test compounds serial dilutions 1 to 3 were performed from a 10 mM stock solution in DMSO by Biomek FX to generate 10 point CRC with the highest concentrations in columns 3 and 13.
(§5) 100% DMSO was placed in columns 1 and 2 and used for assay low controls. CYP inhibitor (10 mM miconazole solution in DMSO) was placed in columns 23 and 24 and served as an assay high controls. 1 μL copy plates were then stamped into V-bottom drug plates at a concentration that is 200 fold the final assay concentration. The copy plates were diluted prior to the experiment with assay buffer to reach 4 times the final assay concentration (2% w/v DMSO).
(§6) A reference compound (e.g., miconazole) was included in each compound plate in row A, column 3 and 13. The reference compound was diluted and stamped together with test compounds. The final concentrations of the 10 point CRCs of test compounds in the assay plate were 5.00E-05; 1.67E-05; 5.56E-06; 1.85E-06; 6.17E-07; 2.06E-07; 6.86E-08; 2.29E-08; 7.62E-09 and 2.54E-09, respectively. All solutions were prepared immediately before the assay.
(§7) The CYP3A4 and CYP2C8 were assayed using the Vivid CYP3A4 Baculosomes, CYP2C8 Baculosomes and Vivid DBOMF Substrate (Life Technologies, cat. P2377, PV6138 and P2974 respectively), while 2B6 is tested by Vivid CYP2B6 Baculosomes and Vivid BOMCC Substrate (Life Technologies, cat. P3028 and P2975). Test compounds were prepared as specified above.
(§8) The assay plate was prepared by preparing pre-mix by diluting P450 Baculosomes Plus Reagent and Vivid Regeneration System in 1× Vivid CYP450 Reaction Buffer (Potassium Phosphate Buffer, 100 mM, pH 8.0). Briefly, 8 μL/ml of P450 Baculosomes Plus Reagent and 16 μL/ml of Vivid Regeneration System were added to achieve the appropriate final concentrations and then mixed by inversion. 30 μL of pre-mix were dispensed into each well of a black, 384-well plate.
(§9) Next, 10 μL/well from the compound plate was added and incubated for 10 minutes at 37° C. on a plate shaker, while a mixture of Vivid Substrate and Vivid NADP+ in Vivid CYP450 Reaction Buffer was prepared. The reaction was initiated by adding 10 μL/well of the Vivid Substrate and NADP+ mixture, before transferring the plate into the fluorescent plate reader (immediately, within 2 minutes), and fluorescence was monitored every minute for 10 minutes according to the specific protocol.
(§10) Regarding data analysis, inhibition is expressed as a percentage. […] Curve fitting and pIC50 estimations are carried out using a four-parameter logistic model in Morphit.

CYP2B6 = target: T2, CYP2B6 (Homo sapiens, UniProt P20813); assay: CYP450 inhibition, fluorescent probe substrate; type: in vitro ADME
T2 construct: purchased Life Technologies P3028; host or cells: Baculosomes
T2 sequence (P20813 1-491): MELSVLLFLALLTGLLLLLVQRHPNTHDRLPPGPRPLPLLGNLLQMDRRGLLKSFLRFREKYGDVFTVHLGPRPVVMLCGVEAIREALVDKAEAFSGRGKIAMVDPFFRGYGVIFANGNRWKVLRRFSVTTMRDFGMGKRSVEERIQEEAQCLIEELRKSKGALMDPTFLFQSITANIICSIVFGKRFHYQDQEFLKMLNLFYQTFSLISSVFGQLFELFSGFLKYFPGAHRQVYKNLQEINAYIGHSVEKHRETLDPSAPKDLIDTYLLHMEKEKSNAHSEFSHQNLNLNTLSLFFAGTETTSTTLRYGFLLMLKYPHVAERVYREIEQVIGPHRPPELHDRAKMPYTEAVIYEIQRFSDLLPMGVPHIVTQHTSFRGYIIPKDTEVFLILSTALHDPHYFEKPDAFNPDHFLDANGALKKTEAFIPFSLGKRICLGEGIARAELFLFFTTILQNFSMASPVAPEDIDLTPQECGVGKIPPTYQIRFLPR
Protocol: as §1, §2, §3, §4, §5, §6, §7, §8, §9, §10

hSERT = target: T3, hSERT (Homo sapiens, UniProt P31645); assay: SERT uptake SPA in hSERT-CHO cells; type: cell-based; conditions: for SERT/DAT Uptake Ratio: calculated as 1/SERT IC50:1/DAT IC50
T3 construct: expressed in transfected cells; host or cells: CHO (hSERT-CHO)

[1] = recombinant human isoenzyme, n=2, read-out: Inhibition of CYP2C8, IC50
[2] = recombinant human isoenzyme, n=2, read-out: Inhibition of CYP2B6, IC50
[3] = [3H]-serotonin uptake, hSERT-CHO cells, read-out: SERT Uptake SPA (pIC50) (converted)

T3 sequence (P31645 whole entry): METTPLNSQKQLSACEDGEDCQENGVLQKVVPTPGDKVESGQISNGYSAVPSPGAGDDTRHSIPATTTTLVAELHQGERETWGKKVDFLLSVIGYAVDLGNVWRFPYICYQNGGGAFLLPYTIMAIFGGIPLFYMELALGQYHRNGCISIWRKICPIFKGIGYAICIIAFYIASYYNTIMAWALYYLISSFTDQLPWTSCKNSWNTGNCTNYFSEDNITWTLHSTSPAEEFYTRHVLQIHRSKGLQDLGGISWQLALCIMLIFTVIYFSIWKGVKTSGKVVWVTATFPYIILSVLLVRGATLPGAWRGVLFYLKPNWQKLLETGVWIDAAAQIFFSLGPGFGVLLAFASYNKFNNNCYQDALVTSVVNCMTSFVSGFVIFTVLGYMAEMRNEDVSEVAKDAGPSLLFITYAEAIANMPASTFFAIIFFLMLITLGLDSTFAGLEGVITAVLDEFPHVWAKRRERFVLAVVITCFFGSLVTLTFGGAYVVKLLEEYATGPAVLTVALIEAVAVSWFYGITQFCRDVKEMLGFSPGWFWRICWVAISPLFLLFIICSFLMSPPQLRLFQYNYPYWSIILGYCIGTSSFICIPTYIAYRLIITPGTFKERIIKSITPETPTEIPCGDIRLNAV

| SMILES | IC50 (CYP2C8; [1]) [µM] | IC50 (CYP2B6; [2]) [µM] | SERT Uptake SPA (pIC50) (hSERT; [3H]-serotonin uptake, hSERT-CHO cells) | SERT/DAT Uptake Ratio (hSERT) | IC50 (hSERT; [3]) [µM] | IC50 (CYP2C8) [µM] | IC50 (CYP2B6) [µM] | IC50 (hSERT) [µM] |
| --- | --- | --- | --- | --- | --- | --- | --- | --- |
| CNC(C)Cc1ccc2c(c1)OCO2 (centres unmarked) [MDMA] | > 50 | > 50 | 6.0 | 2.1 | – | – | – | – |
| COC(=O)c1ccc2c(c1)CC(N)C2 (centres unmarked) [CMP-405, 2-aminoindane-5-methylcarboxylate] | > 50 | > 50 | – | – | 7.94 | – | – | – |
| COc1ccc2c(c1)CC(N)C2 (centres unmarked) [MEAI, 5-methoxy-2-aminoindane] | – | – | – | 9 | – | > 50 | > 50 | 3.98 |
| COC(=O)c1cc2c(cc1OC)CC(N)C2 (centres unmarked) [CMP-401] | > 50 | > 50 | – | 22 | 3.98 | – | – | – |
| COC(=O)COc1ccc2c(c1)CC(N)C2 (centres unmarked) [CMP-402] | > 50 | > 50 | – | 1.4 | 63.1 | – | – | – |
| COc1cc2c(cc1C)CC(N)C2 (centres unmarked) [MMAI, 5-methoxy-6-methyl-2-aminoindane] | – | – | – | 52 | – | > 50 | > 50 | 1 |
